ChEMBL document CHEMBL1143114, “Preparation and affinity profile of novel nicotinic ligands” (Bioorg Med Chem Lett, 2008)
The source made the active and inactive calls. No cut-off for these calls is given here.

Assays:
[1] = molecular target: Neuronal acetylcholine receptor subunit alpha-7 (Rattus norvegicus, UniProt Q05941); assay: Displacement of [3H]alpha-bungaro-toxine from nicotinic alpha-7 receptor in rat brain; assay type: tissue-based
[2] = molecular target: Neuronal acetylcholine receptor; alpha4/beta2 (Rattus norvegicus, UniProt P09483+P12390); assay: Displacement of [3H]cystisine from nicotinic alpha-4-beta-2 receptor in rat brain; assay type: tissue-based
[3] = molecular target: Muscarinic acetylcholine receptor; assay: Displacement of [3H]oxotremorine from muscarinic receptor in rat brain; assay type: tissue-based
Rattus norvegicus [4] = species on record: Rattus norvegicus; assay: Effect on memory in Wistar rat by social recognition test; assay type: functional, organism-based
Rattus norvegicus [5] = species on record: Rattus norvegicus; assay: Increase in cortical acetyl choline levels in rat by microdialysis; assay type: functional, organism-based

Chain of Neuronal acetylcholine receptor subunit alpha-7 (Q05941 whole entry): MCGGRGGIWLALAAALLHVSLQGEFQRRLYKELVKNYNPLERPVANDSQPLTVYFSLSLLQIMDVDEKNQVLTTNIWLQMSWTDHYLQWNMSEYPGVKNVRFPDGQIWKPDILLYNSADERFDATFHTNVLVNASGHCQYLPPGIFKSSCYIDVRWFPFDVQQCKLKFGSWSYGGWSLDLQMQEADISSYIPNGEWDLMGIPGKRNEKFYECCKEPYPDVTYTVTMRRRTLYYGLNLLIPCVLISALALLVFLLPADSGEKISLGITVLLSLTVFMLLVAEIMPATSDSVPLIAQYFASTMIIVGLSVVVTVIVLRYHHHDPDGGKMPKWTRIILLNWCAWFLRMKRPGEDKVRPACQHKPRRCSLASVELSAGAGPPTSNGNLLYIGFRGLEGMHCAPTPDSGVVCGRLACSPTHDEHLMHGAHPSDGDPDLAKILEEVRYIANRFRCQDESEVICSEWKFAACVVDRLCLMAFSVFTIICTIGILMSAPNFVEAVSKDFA
Chain of Neuronal acetylcholine receptor; alpha4/beta2 (P09483 whole entry): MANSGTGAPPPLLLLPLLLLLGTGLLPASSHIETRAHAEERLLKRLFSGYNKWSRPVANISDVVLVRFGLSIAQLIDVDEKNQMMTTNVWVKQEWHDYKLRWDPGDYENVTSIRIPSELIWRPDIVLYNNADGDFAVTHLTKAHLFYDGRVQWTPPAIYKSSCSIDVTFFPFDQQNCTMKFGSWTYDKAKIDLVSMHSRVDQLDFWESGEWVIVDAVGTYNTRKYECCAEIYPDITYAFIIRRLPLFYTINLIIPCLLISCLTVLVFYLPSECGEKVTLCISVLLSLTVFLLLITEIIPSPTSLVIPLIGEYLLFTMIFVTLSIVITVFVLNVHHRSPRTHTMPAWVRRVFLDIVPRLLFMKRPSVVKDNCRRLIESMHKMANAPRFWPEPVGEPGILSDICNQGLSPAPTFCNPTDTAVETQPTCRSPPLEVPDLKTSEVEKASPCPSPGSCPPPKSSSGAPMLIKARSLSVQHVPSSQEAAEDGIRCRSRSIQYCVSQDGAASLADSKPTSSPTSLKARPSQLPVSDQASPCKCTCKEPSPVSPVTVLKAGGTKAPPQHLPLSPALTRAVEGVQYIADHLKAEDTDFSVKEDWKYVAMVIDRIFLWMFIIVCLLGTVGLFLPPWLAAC
Chain of Neuronal acetylcholine receptor; alpha4/beta2 (P12390 whole entry): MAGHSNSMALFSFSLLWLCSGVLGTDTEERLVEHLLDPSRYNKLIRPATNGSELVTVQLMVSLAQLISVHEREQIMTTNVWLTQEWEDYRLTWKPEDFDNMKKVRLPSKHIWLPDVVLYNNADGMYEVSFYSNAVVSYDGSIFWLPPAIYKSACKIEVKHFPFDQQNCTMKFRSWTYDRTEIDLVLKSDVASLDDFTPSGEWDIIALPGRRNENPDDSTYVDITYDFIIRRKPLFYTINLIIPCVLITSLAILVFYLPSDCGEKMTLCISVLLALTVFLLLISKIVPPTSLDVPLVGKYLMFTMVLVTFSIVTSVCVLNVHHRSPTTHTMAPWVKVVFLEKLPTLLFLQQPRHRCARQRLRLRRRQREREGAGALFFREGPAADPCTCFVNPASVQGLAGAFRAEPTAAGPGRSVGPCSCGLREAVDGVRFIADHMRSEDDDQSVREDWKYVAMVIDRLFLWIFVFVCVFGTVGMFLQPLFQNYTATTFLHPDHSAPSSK

Row | Structure (SMILES) | Ki [1] [nM] | Ki [2] [nM] | Ki [3] [nM] | Activity (Rattus norvegicus [4]) | Activity (Rattus norvegicus [5])
1 | Cl.NC1(COc2cccnc2)CC1 | > 10000 | 34 | > 10000 |  | 
2 | CCNC1(COc2cccnc2)CC1 | > 10000 | 1010 | > 10000 |  | 
3 | CNC1(COc2cnc(Cl)c(Br)c2)CC1.Cl | > 10000 | 5.37 | > 10000 |  | 
4 | CN(C)C1(COc2cnc(Cl)c(Br)c2)CC1 |  | 110 |  |  | 
5 | NC1(COc2ccc(Cl)nc2)CC1 |  | 98 |  |  | 
6 | Cc1ccc(OCC2(N)CC2)cn1 |  | 266 |  |  | 
7 | CNC1(CCOc2cccnc2)CC1.O=C(O)/C=C/C(=O)O | > 10000 | 109 | > 10000 |  | 
8 | Cc1ccc(OCC2(N(C)C)CC2)cn1 |  | 1090 |  |  | 
9 | CNC1(/C=C\COc2cccnc2)CC1.Cl | > 10000 | 2280 | > 10000 |  | 
10 | CNC1(/C=C/COc2cccnc2)CC1.Cl | > 10000 | 1100 | > 10000 |  | 
11 | CN(C)C1(COc2ccc(Br)nc2)CC1 |  | 394 |  |  | 
12 | CNC1(COc2ccc(C)nc2)CC1.Cl | > 10000 | 40 | > 10000 |  | 
13 | CNC1(CCc2cccnc2)CC1.Cl | 1910 | 251 | > 10000 |  | 
14 | c1cncc(OCC2(N3CCCC3)CC2)c1 | > 10000 | 1610 | > 10000 |  | 
15 | CNC1(COc2ccc(Cl)nc2)CC1.Cl | > 10000 | 13 | > 10000 |  | 
16 | C=Cc1cncc(OCC2(NC)CC2)c1.Cl | > 10000 | 70.1 | > 10000 |  | 
17 | C#Cc1cncc(OCC2(NC)CC2)c1.Cl | > 10000 | 6.56 | > 10000 |  | 
18 | CNC1(/C=C/c2cccnc2)CC1.O=C(O)/C=C/C(=O)O | 3460 | 1160 | > 10000 |  | 
19 | CN(C)C1(COc2cncc(Br)c2)CC1 |  | 273 |  |  | 
20 | CNC1(COc2cccnc2)CC1.Cl | > 10000 | 3 | > 10000 | Active | Dose-dependent effect
21 | CN(C)C1(COc2ccc(Cl)nc2)CC1 |  | 304 |  |  | 
22 | CNC1(COc2ccc(Br)nc2)CC1.Cl | > 10000 | 38.8 | > 10000 |  | 
23 | CNC1(COc2cncc(Br)c2)CC1.Cl | > 10000 | 1.07 | > 10000 |  | 
24 | CN(C)C1(COc2cccnc2)CC1.Cl | > 10000 | 95 | > 10000 |  | 
25 | CNC1(CCCOc2cccnc2)CC1.O=C(O)/C=C/C(=O)O | > 10000 | 2460 | > 10000 |  | 
